Laboratory results taken from article PMC6600592, “Design, Synthesis, and Bioactive Screen In Vitro of Cyclohexyl (E)-4-(Hydroxyimino)-4-Phenylbutanoates and Their Ethers for Anti-Hepatitis B Virus Agents” (Molecules, 2019).
Like-named read-outs stand apart in the source and are kept apart here.

Columns and labels:
[1] = Cytotoxicity in HepG 2.2.15 cells (MTT assay, nine days); format: cell-based, human; settings: human, after nine days, read-out: CC50 (50% cytotoxicity concentration)
Method: (§1) These synthesized compounds were evaluated for anti-HBV activity with referring to reported method. The HepG2.2.15 cell, a human hepatoblastoma cell line stably transfected with cloned HBV DNA, was obtained from Chinese Academy of Medical Sciences (Beijing, China), and was cultured in Dulbecco’s Modified Eagle’s Medium (DMEM) supplemented with 10% fetal bovine serum and 1.5 g/L of sodium bicarbonate, 10 mL/L of streptomycin, 10 mL/L of penicillin, and 200 mg/L of G418 at 37 °C in a 5% CO2 atmosphere with 95–98% humidity. Then, HepG2.2.15 cell was plated at a density of 1 × 10^5 cells/mL in 96-well plates and incubated at 37 °C for 24 h and then treated with variant concentration of compounds in […]; every three days, in a nine day period, C (OD) values were recorded at 450 nm. After nine days, the percent of cell death was measured using the method of MTT assay after drug treatment. Cytotoxicity of these compounds was expressed as the concentration of compound required to kill 50% (CC50) of the HepG 2.2.15 cells.

HBeAg = assay: cells; settings: for HBeAg SI (selectivity index = CC50/IC50): CC50/IC50 for HBeAg
Method: as §1
(§2) Method for the HBsAg and HBeAg Inhibition Assays. The levels of HBV surface antigen (HBsAg) and HBV e antigen (HBeAg) in the supernatant of the HepG2.2.15 cells were determined by the enzyme-linked immunosorbent assay (ELISA) according to the manufacturer’s protocol (Shanghai Kehua Biotech Co., Ltd., Shanghai, China). The synthesized compounds were expressed as the concentration that achieved 50% inhibition (IC50) to the secretion of HBsAg and HBeAg. The selectivity index (SI) was determined as the ratio of CC50 to IC50 which a major pharmaceutical parameter of estimates possible future clinical application.

HBsAg = assay: cells; settings: for HBsAg SI (selectivity index = CC50/IC50): CC50/IC50 for HBsAg
Method: as §1, §2

HepG 2.2.15 cells = assay: Cytotoxicity in HepG 2.2.15 cells (MTT assay, nine days); format: cell-based, human; settings: after nine days, read-out: CC50 (50% cytotoxicity concentration)
Method: as §1

[2] = Hepatitis B virus, HepG2.2.15, read-out: HBeAg IC50
[3] = Hepatitis B virus, HepG2.2.15, read-out: HBsAg IC50
[4] = read-out: HBeAg IC50, secretion of HBeAg, HepG 2.2.15 cells, mean ± S.E.M., n = 3
[5] = read-out: HBsAg IC50, secretion of HBsAg, HepG 2.2.15 cells, mean ± S.E.M., n = 3

Row | Compound | CC50 at 9 days [1] [µM] | HBeAg SI (selectivity index = CC50/IC50) (HBeAg; HepG 2.2.15 cells) | IC50 (HBeAg; [2]) [µM] | HBsAg SI (selectivity index = CC50/IC50) (HBsAg; HepG 2.2.15 cells) | IC50 (HBsAg; [3]) [µM] | CC50 (HepG 2.2.15 cells) [µM] | IC50 (HBeAg; [4]) [µM] | IC50 (HBsAg; [5]) [µM]
1 | Nc1ccn([C@@H]2CS[C@H](CO)O2)c(=O)n1 [Compound 3TC, Lamivudine, reference compound] | 516 | – | – | – | – | – | – | –
2 | O=C(CC/C(=N\O)c1ccccc1)OC1CCCCC1 [Compound 4A-1, Cyclohexyl (E)-4-hydroxyimino-4-phenylbutanoate] | 528 | 1.41 | 375 ± 36.2 | 1.04 | 506 ± 28.6 | – | – | –
3 | CO/N=C(\CCC(=O)OC1CCCCC1)c1ccccc1 [Compound 4A-2, Cyclohexyl (E)-4-methoxyimino-4-phenylbutanoate] | 660 | 5.55 | 119 ± 13.2 | 6.03 | 109 ± 16.1 | – | – | –
4 | O=C(CC/C(=N\OCc1ccccc1)c1ccccc1)OC1CCCCC1 [Compound 4A-3, Cyclohexyl (E)-4-benzyloxyimino-4-phenylbutanoate] | 974 | 7.53 | 129 ± 13.6 | 8.58 | 114 ± 6.15 | – | – | –
5 | Cc1ccc(/C(CCC(=O)OC2CCCCC2)=N/O)cc1 [Compound 4B-1, Cyclohexyl (E)-4-hydroxyimino-4-(4-methylphenyl)butanoate] | 444 | 1.56 | 284 ± 26.7 | 1.72 | 257 ± 16.5 | – | – | –
6 | Cc1ccc(/C(CCC(=O)OC2CCCCC2)=N/OCc2ccccc2)cc1 [Compound 4B-3, Cyclohexyl (E)-4-benzyloxyimino-4-(4-methylphenyl)butanoate] | 860 | 10.16 | 84.6 ± 6.6 | 10.95 | 78.5 ± 9.87 | – | – | –
7 | COc1ccc(/C(CCC(=O)OC2CCCCC2)=N/O)cc1 [Compound 4C-1, Cyclohexyl (E)-4-hydroxyimino-4-(4-methoxyphenyl)butanoate] | 481 | 1.19 | 405 ± 4.8 | 0.98 | 489 ± 11.2 | – | – | –
8 | CO/N=C(\CCC(=O)OC1CCCCC1)c1ccc(OC)cc1 [Compound 4C-2, Cyclohexyl (E)-4-methoxyimino-4-(4-methoxyphenyl)butanoate] | 630 | 4.92 | 128 ± 34.6 | 5.94 | 106 ± 8.67 | – | – | –
9 | COc1ccc(/C(CCC(=O)OC2CCCCC2)=N/OCc2ccccc2)cc1 [Compound 4C-3, Cyclohexyl (E)-4-benzyloxyimino-4-(4-methoxyphenyl)butanoate] | 678 | 5.20 | 130 ± 21.5 | 6.08 | 112 ± 7.25 | – | – | –
10 | CO/N=C(\CCC(=O)OC1CCCCC1)c1ccc(Cl)cc1 [Compound 4D-2, Cyclohexyl (E)-4-methoxyimino-4-(4-chlorophenyl)butanoate] | 581 | 6.83 | 85.1 ± 11.9 | 8.59 | 67.7 ± 8.81 | – | – | –
11 | O=C(CC/C(=N\OCc1ccccc1)c1ccc(Cl)cc1)OC1CCCCC1 [Compound 4D-3, Cyclohexyl (E)-4-benzyloxyimino-4-(4-chlorophenyl)butanoate] | 604 | 6.25 | 96.8 ± 5.13 | 6.53 | 92.6 ± 4.94 | – | – | –
12 | Cyclohexyl (E)-4-hydroxyimino-4-(4-chlorophenyl)butanimidate [Compound 4D-1] | – | – | – | – | – | 396 | 373 ± 16.9 | 352 ± 11
13 | Cyclohexyl (E)-4-methoxyimino-4-(4-methoxyphenyl)butanoate [Compound 4B-2] | – | – | – | – | – | 856 | 49.4 ± 4.17 | 63.9 ± 6.26
